Laboratory results published in PMC4319993 (Nature, 2014).

Legend:
R. palustris LCC (RpLCC) = test: coupled ATPase assay; format: biochemical, Rhodopseudomonas palustris; details: 1.5 mM ATP, 40 mM KHCO3, 10 mM MgCl2, 200 mM KCl, 100 mM Hepes pH 7.5; 0.25 uM enzyme
[1] = molecular target: Mycobacterium avium subspecies paratuberculosis long-chain acyl-CoA carboxylase (Mycobacterium avium subspecies paratuberculosis); test: crystal structure
[2] = molecular target: Mycobacterium avium subspecies paratuberculosis long-chain acyl-CoA carboxylase (Mycobacterium avium subspecies paratuberculosis); test: SEC
[3] = molecular target: Mycobacterium avium subspecies paratuberculosis long-chain acyl-CoA carboxylase (Mycobacterium avium subspecies paratuberculosis); test: crystal structure; remark: listed apart in the source
[4] = molecular target: Rhodopseudomonas palustris long-chain acyl-CoA carboxylase (Rhodopseudomonas palustris); test: SEC

CCCCCCCC(=O)SCCNC(=O)CCNC(=O)[C@H](O)C(C)(C)COP(=O)(O)OP(=O)(O)OC[C@H]1O[C@@H](n2cnc3c(N)ncnc32)[C@H](O)[C@@H]1OP(=O)(O)O [Octanoyl-CoA]
Km (R. palustris LCC (RpLCC)): 370 ± 60 µM

CC(=O)SCCNC(=O)CCNC(=O)[C@H](O)C(C)(C)COP(=O)(O)OP(=O)(O)OC[C@H]1O[C@@H](n2cnc3c(N)ncnc32)[C@H](O)[C@@H]1OP(=O)(O)O [Acetyl-CoA]
Km (R. palustris LCC (RpLCC)): 2000 ± 300 µM

Mycobacterium avium subspecies paratuberculosis long-chain acyl-CoA carboxylase (enzyme)
stoichiometry N [1]: 6
stoichiometry N [2]: 6
stoichiometry N [3]: 6

Rhodopseudomonas palustris long-chain acyl-CoA carboxylase (enzyme)
stoichiometry N [4]: 6

CCCCCCCCCCCCCC(=O)SCCNC(=O)CCNC(=O)[C@H](O)C(C)(C)COP(=O)(O)OP(=O)(O)OC[C@H]1O[C@@H](n2cnc3c(N)ncnc32)[C@H](O)[C@@H]1OP(=O)(O)O [Myristoyl-CoA]
Km (R. palustris LCC (RpLCC)): 26 ± 2 µM

CCCCCCCCCCCCCCCC(=O)SCCNC(=O)CCNC(=O)[C@H](O)C(C)(C)COP(=O)(O)OP(=O)(O)OC[C@H]1O[C@@H](n2cnc3c(N)ncnc32)[C@H](O)[C@@H]1OP(=O)(O)O [Palmitoyl-CoA]
Km (R. palustris LCC (RpLCC)): 5.8 ± 0.5 µM

CCCCCC(=O)SCCNC(=O)CCNC(=O)[C@H](O)C(C)(C)COP(=O)(O)OP(=O)(O)OC[C@H]1O[C@@H](n2cnc3c(N)ncnc32)[C@H](O)[C@@H]1OP(=O)(O)O [Hexanoyl-CoA]
Km (R. palustris LCC (RpLCC)): 200 ± 40 µM

CCC(=O)SCCNC(=O)CCNC(=O)[C@H](O)C(C)(C)COP(=O)(O)OP(=O)(O)OC[C@H]1O[C@@H](n2cnc3c(N)ncnc32)[C@H](O)[C@@H]1OP(=O)(O)O [Propionyl-CoA]
Km (R. palustris LCC (RpLCC)): 2200 ± 500 µM

CCCCCCCCCCCC(=O)SCCNC(=O)CCNC(=O)[C@H](O)C(C)(C)COP(=O)(O)OP(=O)(O)OC[C@H]1O[C@@H](n2cnc3c(N)ncnc32)[C@H](O)[C@@H]1OP(=O)(O)O [Lauroyl-CoA]
Km (R. palustris LCC (RpLCC)): 19 ± 3 µM

CCCC(=O)SCCNC(=O)CCNC(=O)[C@H](O)C(C)(C)COP(=O)(O)OP(=O)(O)OC[C@H]1O[C@@H](n2cnc3c(N)ncnc32)[C@H](O)[C@@H]1OP(=O)(O)O [Butyryl-CoA]
Km (R. palustris LCC (RpLCC)): 820 ± 160 µM

CCCCCCCCCC(=O)SCCNC(=O)CCNC(=O)[C@H](O)C(C)(C)COP(=O)(O)OP(=O)(O)OC[C@H]1O[C@@H](n2cnc3c(N)ncnc32)[C@H](O)[C@@H]1OP(=O)(O)O [Decanoyl-CoA]
Km (R. palustris LCC (RpLCC)): 33 ± 5 µM
